Laboratory results taken from patent US20260184710A1, “CASITAS B-LINEAGE LYMPHOMA PROTOONCOGENE B (CBL-B) DEGRADING COMPOUNDS AND ASSOCIATED METHODS OF USE” (Arvinas Operations, Inc., priority 2022, published 2026).

Assays:
Cbl-b [1] = target: T1, Cbl-b (Homo sapiens, UniProt Q13191); assay: Cbl-b Degradation Method A (FACS, anti-Cbl-b antibody staining); type: cell-based; settings: Cbl-b-HiBit KI Jurkat Cells, incubated at least 20 hours; for DC50: half maximal degradation, read-out: Cbl-b Degredation Method A IC50
T1 construct: Cbl-b-HiBit KI Jurkat Cells were purchased from Promega; host or cells: Cbl-b-HiBiT knock-in Jurkat cells
How it was run: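 Readout is flow cytometry of fixed, permeabilized cells immunostained for Cbl-b (primary 1:200, AF488 secondary). Cells were Cbl-b-HiBit knock-in Jurkat, exposed to compound ≥20 h at 37 °C; half-maximal degradation concentration (DC50) and maximal degradation (Dmax) calculated relative to control.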

Cbl-b [2] = target: T1, Cbl-b; assay: Cbl-b Degradation Method B (Nano-Glo HiBiT lytic detection); type: cell-based; settings: Cbl-b-HiBit KI Jurkat Cells, incubated at least 6-24 hours; for DC50: half maximal degradation, read-out: Cbl-b Degredation Method B IC50
How it was run: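 An 11-point, 3-fold compound dilution was applied for 6-24 hours to Jurkat cells carrying HiBiT-tagged endogenous Cbl-b. Lytic HiBiT luminescence quantified residual protein. Outputs are DC50 and Dmax relative to DMSO control.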

T1 sequence (Q13191 whole entry): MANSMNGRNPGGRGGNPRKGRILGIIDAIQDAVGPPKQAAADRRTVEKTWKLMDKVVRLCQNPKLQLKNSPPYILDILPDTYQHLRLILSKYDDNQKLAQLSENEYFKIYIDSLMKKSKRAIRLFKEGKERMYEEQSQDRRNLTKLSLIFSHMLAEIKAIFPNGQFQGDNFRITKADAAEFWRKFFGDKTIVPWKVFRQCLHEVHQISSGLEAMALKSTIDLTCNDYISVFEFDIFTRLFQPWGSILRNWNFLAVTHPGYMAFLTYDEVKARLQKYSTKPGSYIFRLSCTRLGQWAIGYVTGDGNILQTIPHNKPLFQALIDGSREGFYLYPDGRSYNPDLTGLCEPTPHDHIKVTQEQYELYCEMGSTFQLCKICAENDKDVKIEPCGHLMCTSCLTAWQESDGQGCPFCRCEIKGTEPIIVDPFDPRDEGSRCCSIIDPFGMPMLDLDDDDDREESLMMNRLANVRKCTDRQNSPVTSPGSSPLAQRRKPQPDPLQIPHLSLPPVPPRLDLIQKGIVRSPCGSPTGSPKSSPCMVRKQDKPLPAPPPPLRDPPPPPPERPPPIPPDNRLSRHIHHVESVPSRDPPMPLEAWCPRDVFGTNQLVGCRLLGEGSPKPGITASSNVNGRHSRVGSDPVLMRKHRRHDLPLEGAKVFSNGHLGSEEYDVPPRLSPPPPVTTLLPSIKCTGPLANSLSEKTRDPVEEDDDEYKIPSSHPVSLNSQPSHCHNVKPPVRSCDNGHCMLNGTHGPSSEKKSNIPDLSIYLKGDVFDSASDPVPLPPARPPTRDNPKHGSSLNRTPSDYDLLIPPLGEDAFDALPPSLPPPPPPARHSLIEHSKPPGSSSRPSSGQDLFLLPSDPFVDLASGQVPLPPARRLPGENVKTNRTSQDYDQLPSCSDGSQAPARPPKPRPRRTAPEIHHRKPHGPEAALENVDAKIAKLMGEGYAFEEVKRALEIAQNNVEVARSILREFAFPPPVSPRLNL

| SMILES | DC50 (Cbl-b [1]) | DC50 (Cbl-b [2]) | Dmax (Cbl-b [1]; Jurkat, maximum degradation observed, read-out: Cbl-b Degredation Method A Dmax (%)) | Dmax (Cbl-b [2]; maximum degradation observed, read-out: Cbl-b Degredation Method B Dmax (%)) |
| --- | --- | --- | --- | --- |
| Cn1cnnc1CC1(c2cccc(N3Cc4c(cc(CN5CCC(CN6CCC7(CC6)CCN(c6ccc8c(c6)C(=O)N(C6CCC(=O)NC6=O)C8=O)CC7)CC5)cc4C(F)(F)F)C3=O)c2)COC1 (stereo not drawn) [Example 29, 2-(2,6-dioxopiperidin-3-yl)-5-{9-[(1-{[2-(3-{3-[(4-methyl-4H-1,2,4-triazol-3-yl)methyl]oxetan-3-yl}phenyl)-3-oxo-7-(trifluoromethyl)-2,3-dihydro-1H-isoindol-5-yl]methyl}piperidin-4-yl)methyl]-3,9-diazaspiro[5.5]undecan-3-yl}-2,3-dihydro-1H-isoindole-1,3-dione] | > 500 nM | > 500 nM |  |  |
| Cn1cnnc1CC1(c2cccc(N3Cc4c(cc(CN5CCC(CN6CCC(Oc7ccc8c(c7)C(=O)N(C7CCC(=O)NC7=O)C8=O)CC6)CC5)cc4C(F)(F)F)C3=O)c2)COC1 (stereo not drawn) [Example 30, 2-(2,6-dioxopiperidin-3-yl)-5-({1-[(1-{[2-(3-{3-[(4-methyl-4H-1,2,4-triazol-3-yl)methyl]oxetan-3-yl}phenyl)-3-oxo-7-(trifluoromethyl)-2,3-dihydro-1H-isoindol-5-yl]methyl}piperidin-4-yl)methyl]piperidin-4-yl}oxy)-2,3-dihydro-1H-isoindole-1,3-dione] | > 500 nM | > 500 nM |  |  |
| Cn1cnnc1CC1(c2cccc(N3Cc4c(cc(CN5CCC(CN6CC7(C6)CN(c6ccc8c(c6)C(=O)N(C6CCC(=O)NC6=O)C8=O)C7)CC5)cc4C(F)(F)F)C3=O)c2)COC1 (stereo not drawn) [Example 31, 2-(2,6-dioxopiperidin-3-yl)-5-{6-[(1-{[2-(3-{3-[(4-methyl-4H-1,2,4-triazol-3-yl)methyl]oxetan-3-yl}phenyl)-3-oxo-7-(trifluoromethyl)-2,3-dihydro-1H-isoindol-5-yl]methyl}piperidin-4-yl)methyl]-2,6-diazaspiro[3.3]heptan-2-yl}-2,3-dihydro-1H-isoindole-1,3-dione] | > 500 nM | > 500 nM |  |  |
| Cn1cnnc1CC1(c2cccc(N3Cc4c(cc(CN5CCC[C@H](CN6CCC(CN7CCC(CN8CCN(c9ccc%10c(c9F)CN(C9CCC(=O)NC9=O)C%10=O)CC8)CC7)CC6)C5)cc4C(F)(F)F)C3=O)c2)COC1 (stereo partly drawn) [Example 74, 3-{4-fluoro-5-[4-({1-[(1-{[(3R)-1-{[2-(3-{3-[(4-methyl-4H-1,2,4-triazol-3-yl)methyl]oxetan-3-yl}phenyl)-3-oxo-7-(trifluoromethyl)-2,3-dihydro-1H-isoindol-5-yl]methyl}piperidin-3-yl]methyl}piperidin-4-yl)methyl]piperidin-4-yl}methyl)piperazin-1-yl]-1-oxo-2,3-dihydro-1H-isoindol-2-yl}piperidine-2,6-dione] | 5 to 50 nM | < 5 nM | > 70% | > 70% |
| Cn1cnnc1CC1(c2cccc(N3Cc4c(cc(CN5CCC(CC6CCN(c7ccc8c(c7)C(=O)N(C7CCC(=O)NC7=O)C8=O)CC6)C5)cc4C(F)(F)F)C3=O)c2)COC1 (stereo not drawn) [Example 75, 2-(2,6-dioxopiperidin-3-yl)-5-{4-[(1-{[2-(3-{3-[(4-methyl-4H-1,2,4-triazol-3-yl)methyl]oxetan-3-yl}phenyl)-3-oxo-7-(trifluoromethyl)-2,3-dihydro-1H-isoindol-5-yl]methyl}pyrrolidin-3-yl)methyl]piperidin-1-yl}-2,3-dihydro-1H-isoindole-1,3-dione] | > 500 nM | > 500 nM |  |  |
| Cn1cnnc1CC1(c2cccc(N3Cc4c(cc(CN5CCCC(CN6CCN(c7ccc8c(c7)C(=O)N(C7CCC(=O)NC7=O)C8=O)CC6)C5)cc4C(F)(F)F)C3=O)c2)COC1 (stereo not drawn) [Example 76, 2-(2,6-dioxopiperidin-3-yl)-5-{4-[(1-{[2-(3-{3-[(4-methyl-4H-1,2,4-triazol-3-yl)methyl]oxetan-3-yl}phenyl)-3-oxo-7-(trifluoromethyl)-2,3-dihydro-1H-isoindol-5-yl]methyl}piperidin-3-yl)methyl]piperazin-1-yl}-2,3-dihydro-1H-isoindole-1,3-dione] | > 500 nM | > 500 nM |  |  |
| Cn1cnnc1CC1(c2cccc(N3Cc4c(cc(CN5CCC(CN6CCC(C7CCN(c8ccc9c(c8)C(=O)N(C8CCC(=O)NC8=O)C9=O)CC7)CC6)CC5)cc4C(F)(F)F)C3=O)c2)COC1 (stereo not drawn) [Example 77, 2-(2,6-dioxopiperidin-3-yl)-5-{1′-[(1-{[2-(3-{3-[(4-methyl-4H-1,2,4-triazol-3-yl)methyl]oxetan-3-yl}phenyl)-3-oxo-7-(trifluoromethyl)-2,3-dihydro-1H-isoindol-5-yl]methyl}piperidin-4-yl)methyl]-[4,4′-bipiperidin]-1-yl}-2,3-dihydro-1H-isoindole-1,3-dione] | > 500 nM | > 500 nM |  |  |
| Cn1cnnc1CC1(c2cccc(N3Cc4c(cc(CN5CCC(CC6CN(c7ccc8c(c7)C(=O)N(C7CCC(=O)NC7=O)C8=O)C6)CC5)cc4C(F)(F)F)C3=O)c2)COC1 (stereo not drawn) [Example 79, 2-(2,6-dioxopiperidin-3-yl)-5-{3-[(1-{[2-(3-{3-[(4-methyl-4H-1,2,4-triazol-3-yl)methyl]oxetan-3-yl}phenyl)-3-oxo-7-(trifluoromethyl)-2,3-dihydro-1H-isoindol-5-yl]methyl}piperidin-4-yl)methyl]azetidin-1-yl}-2,3-dihydro-1H-isoindole-1,3-dione] | > 500 nM | > 500 nM |  |  |
| Cn1cnnc1CC1(c2cccc(N3Cc4c(cc(CN5CCC(CN6CC7(CCN(c8ccc9c(c8)C(=O)N(C8CCC(=O)NC8=O)C9=O)CC7)C6)CC5)cc4C(F)(F)F)C3=O)c2)COC1 (stereo not drawn) [Example 81, 2-(2,6-dioxopiperidin-3-yl)-5-{2-[(1-{[2-(3-{3-[(4-methyl-4H-1,2,4-triazol-3-yl)methyl]oxetan-3-yl}phenyl)-3-oxo-7-(trifluoromethyl)-2,3-dihydro-1H-isoindol-5-yl]methyl}piperidin-4-yl)methyl]-2,7-diazaspiro[3.5]nonan-7-yl}-2,3-dihydro-1H-isoindole-1,3-dione] | > 500 nM | > 500 nM |  |  |
| Cn1cnnc1CC1(c2cccc(N3Cc4c(cc(CN5CCC(CN6CCC(c7ccc8c(c7)C(=O)N(C7CCC(=O)NC7=O)C8=O)CC6)CC5)cc4C(F)(F)F)C3=O)c2)COC1 (stereo not drawn) [Example 82, 2-(2,6-dioxopiperidin-3-yl)-5-{1-[(1-{[2-(3-{3-[(4-methyl-4H-1,2,4-triazol-3-yl)methyl]oxetan-3-yl}phenyl)-3-oxo-7-(trifluoromethyl)-2,3-dihydro-1H-isoindol-5-yl]methyl}piperidin-4-yl)methyl]piperidin-4-yl}-2,3-dihydro-1H-isoindole-1,3-dione] | > 500 nM | > 500 nM |  |  |
| Cn1cnnc1CC1(c2cccc(N3Cc4c(cc(CN5CCC(CN6CC(C7CN(c8ccc9c(c8)C(=O)N(C8CCC(=O)NC8=O)C9=O)C7)C6)CC5)cc4C(F)(F)F)C3=O)c2)COC1 (stereo not drawn) [Example 83, 2-(2,6-dioxopiperidin-3-yl)-5-{1′-[(1-{[2-(3-{3-[(4-methyl-4H-1,2,4-triazol-3-yl)methyl]oxetan-3-yl}phenyl)-3-oxo-7-(trifluoromethyl)-2,3-dihydro-1H-isoindol-5-yl]methyl}piperidin-4-yl)methyl]-[3,3′-biazetidin]-1-yl}-2,3-dihydro-1H-isoindole-1,3-dione] | > 500 nM | > 500 nM |  |  |
